Data on four compounds can be found in patent US20100249172A1, “9-CHLORO NOSCAPINE AND ITS USE IN TREATING CANCERS, INCLUDING DRUG-RESISTANT CANCERS” (EMORY UNIVERSITY, priority 2007, published 2010).

The subject of assay [1] is MCF-7 cells. As to the kind of experiment: Cell cycle analysis by flow cytometry (propidium iodide). It counts as cell-based, human. The note with it: for G0/G1 % / G2/M % / S % / Sub-G1 %: mean ± S.E.M.; for accumulation of cells in the G2/M phase (in words): 24 hours; for percent sub-G1 cells compared with noscapine: lower doses (5 μM and 10 μM), 72 hours. As to the method:
The flow cytometric evaluation of the cell cycle status was performed as described previously. Briefly, 2×10^6 cells were centrifuged, washed twice with ice-cold PBS, and fixed in 70% ethanol. Tubes containing the cell pellets were stored at 4° C. for at least 24 hours. Cells were then centrifuged at 1000×g for 10 min and the supernatant was discarded. The pellets were washed twice with 5 ml of PBS and then stained with 0.5 ml of propidium iodide (0.1% in 0.6% Triton-X in PBS) and 0.5 ml of RNase A (2 mg/ml) for 45 minutes in dark. Samples were then analyzed on a FACSCalibur flow cytometer (Beckman Coulter Inc., Fullerton, Calif.).
To investigate the precise mechanisms of cell death, the effect of 9-cloro-noscapine and other halogenated noscapine analogs on percent G2/M cells (mitotic index) and percent sub-G1 cells (apoptotic index) was examined as a function of dose and time in MCF-7 cells using fluorescence activated cell sorting (FACS) analysis. The effect of all compounds including noscapine was evaluated at three doses-5 μM, 10 μM and 25 μM for 0, 24, 48 and 72 hours of drug treatment. […] Fluorescently labeled DNA is a good indicator of cell cycle progression and cell death. An unreplicated complement of diploid (2N) DNA cells represents the G1 phase while duplicated tetraploid (4N) DNA cells represent G2 and M phases. Cells in the process of DNA duplication between diploid and tetraploid peaks represent S phase when DNA is being synthesized. Less than diploid DNA appears in populations of dying cells that degrade their DNA to different extents. Treatment of MCF-7 cells with these compounds for 0, 24, 48 and 72 hours led to profound perturbations of the cell cycle profile at 25 μM (FIGS. 3 A-D). […] The distribution of cell population over G0/G1, S, G2/M and sub-G1 phases of the cell cycle for 25 μM concentration is shown in Table 1.
For orientation: Flow cytometry measures light scatter and fluorescence of single cells or particles in a stream.

The target in assay [2] is tubulin. The note with it: literature value [18]; read-out: dissociation constant (Kd) for binding to tubulin; cited from earlier work.

In assay [1] (25 μM, 0 h), `COc1ccc2c(c1OC)C(=O)O[C@@H]2[C@H]1c2c(c(Br)c3c(c2OC)OCO3)CCN1C` [9-Br-nos] returned a G0/G1 % of 53.3 ± 2.8%, a G2/M % of 28.9 ± 4.4%, a S % of 12.7 ± 1.8% and a Sub-G1 % of 0.2 ± 0.1%. Also, in assay [1] (25 μM, 24 h), the G0/G1 % is recorded as 10.4 ± 1.8%, the G2/M % is given as 61.9 ± 3.6%, the S % is 3.4 ± 1.2% and the Sub-G1 % is given as 6.9 ± 2.4%. In addition, the “accumulation of cells in the G2/M phase (in words)” value in assay [1] (25 μM) was “massive accumulation of cells in the G2/M phase”. For the same compound, in assay [1] (25 μM, 48 h), the G0/G1 % worked out at 6.5 ± 2.5%, the G2/M % was 43.8 ± 3.4%, the S % turned out to be 2.8 ± 0.7% and the Sub-G1 % stood at 35.1 ± 3.5%. In assay [1] (25 μM, 72 h), the G0/G1 % is reported as 4.6 ± 2.1%, the G2/M % is given as 33.7 ± 3.5% and the S % is 2.4 ± 1.6%. In assay [1], the “percent sub-G1 cells compared with noscapine” value is given as “higher”.

For `COc1ccc2c(c1OC)C(=O)O[C@@H]2[C@H]1c2c(c(F)c3c(c2OC)OCO3)CCN1C` [9-F-nos], in assay [1] (25 μM, 0 h), the G0/G1 % is on record as 67.7 ± 5.6%, the G2/M % worked out at 18.5 ± 2.2%, the S % came to 11.9 ± 1.5% and the Sub-G1 % is given as 0.2 ± 0.04%. In assay [1] (25 μM, 24 h), this compound had a G0/G1 % of 10.8 ± 2.4%, a G2/M % of 65.9 ± 4.4%, a S % of 3.8 ± 1.1% and a Sub-G1 % of 6.8 ± 2.1%. The “accumulation of cells in the G2/M phase (in words)” value in assay [1] (25 μM) is listed as “massive accumulation of cells in the G2/M phase”. In assay [1] (25 μM, 48 h), this compound had a G0/G1 % of 7.9 ± 2.8%, a G2/M % of 43.7 ± 2.9%, a S % of 3.5 ± 0.8% and a Sub-G1 % of 34.5 ± 2.5%. In assay [1] (25 μM, 72 h), this compound yielded a G0/G1 % of 5.2 ± 2.2%, a G2/M % of 34.4 ± 3.4%, a S % of 3.6 ± 1.5% and a Sub-G1 % of 48.6 ± 3.3%. Further, the “percent sub-G1 cells compared with noscapine” value in assay [1] is recorded as “higher”.

As for `COc1ccc2c(c1OC)C(=O)O[C@@H]2[C@H]1c2c(c(I)c3c(c2OC)OCO3)CCN1C` [9-I-nos], in assay [1] (25 μM), the “sub-G1 population compared with noscapine” value is reported as “slightly lower”. Besides, in assay [1] (25 μM, 0 h), the G0/G1 % is 60.6 ± 4.6%, the G2/M % was 23.1 ± 3.7%, the S % is 13.9 ± 2.3% and the Sub-G1 % is given as 0.3 ± 0.2%. Further, in assay [1] (25 μM, 24 h), the G0/G1 % is 17 ± 2.3%, the G2/M % was determined as 44.5 ± 5.1%, the S % was 3.1 ± 1.3% and the Sub-G1 % was 7.7 ± 1.7%. Further, in assay [1] (25 μM, 48 h), the G0/G1 % is on record as 15.4 ± 4.5%, the G2/M % is 25.9 ± 4.1%, the S % worked out at 2.9 ± 0.6% and the Sub-G1 % worked out at 28.1 ± 3.1%. Moreover, in assay [1] (25 μM, 72 h), the G0/G1 % is listed as 17 ± 1.9%, the G2/M % stood at 20.7 ± 2.2%, the S % is 4.9 ± 2.2% and the Sub-G1 % stood at 30.1 ± 3.1%.

By Kd is commonly meant the equilibrium constant for the complex coming apart. With `COc1ccc2c(c1OC)C(=O)O[C@@H]2[C@H]1c2c(cc3c(c2OC)OCO3)CCN1C` [Nos, (S)-6,7-dimethoxy-3-((R)-4-methoxy-6-methyl-5,6,7,8-tetrahydro[1,3]-dioxolo-[4,5-g]isoquinolin-5-yl)isobenzo-furan-1(3H)-one, reference compound], the Kd in assay [2] was 144 ± 2.8 µM. For the same compound, in assay [1] (25 μM, 0 h), the G0/G1 % is recorded as 54.8 ± 0.03%, the G2/M % amounted to 29.9 ± 2.2%, the S % is recorded as 13.2 ± 0.2% and the Sub-G1 % stood at 0.2 ± 0.03%. Besides, in assay [1] (25 μM, 24 h), the G0/G1 % came out at 18.3 ± 3.3%, the G2/M % was 50.2 ± 3.6%, the S % came out at 3.4 ± 0.8% and the Sub-G1 % amounted to 10.2 ± 1.2%. Besides, in assay [1] (25 μM, 48 h), the G0/G1 % is 19.8 ± 1.9%, the G2/M % is recorded as 28.07 ± 0.2%, the S % turned out to be 4.1 ± 0.6% and the Sub-G1 % is 36.8 ± 3.7%. In assay [1] (25 μM, 72 h), this compound yielded a G0/G1 % of 20.5 ± 0.2%, a G2/M % of 26.3 ± 0.2%, a S % of 7.06 ± 0.2% and a Sub-G1 % of 36.9 ± 0.2%.
